# Measured values published in patent US10513519B2, “Solid forms of (1S,4S)-4-(2-(((3S,4R)-3-fluorotetrahydro-2H-pyran-4-yl)amino)-8-((2,4,6-trichlorophenyl)amino)-9H-purin-9-yl)-1-methylcyclohexane-1-carboxamide and methods of their use” (Signal Pharmaceuticals, LLC, priority 2016, dated 2019).
# System: cancer cell lines
# Assay: Multiplexed cytotoxicity assay: cell proliferation (relative cell count IC50, GI50)
# Type: cell-based
# Procedure: (§1) Cells are grown in RPMI1640, 10% FBS, 2 mM L-alanyl-L-Glutamine, 1 mM Na pyruvate or a special medium in a humidified atmosphere of 5% CO2 at 37° C. Cells are seeded into 384-well plates and incubated in a humidified atmosphere of 5% CO2 at 37° C. Compounds are added 24 h post cell seeding. At the same time, a time zero untreated cell plate is generated. After a 72 hour incubation period, cells are fixed and stained with fluorescently labeled antibodies and nuclear dye to allow visualization of nuclei, apoptotic cells and mitotic cells. Apoptotic cells are detected using an anti-active caspase-3 antibody. Mitotic cells are detected using an anti phospho-histone-3 antibody. Compounds are serially diluted 3.16-fold and assayed over 10 concentrations in a final assay concentration of 0.1% DMSO from the highest test concentration of 10 μM. Automated fluorescence microscopy was carried out using a Molecular Devices ImageXpress Micro XL high-content imager, and images are collected with a 4× objective.
# (§2) Sixteen-bit TIFF images are acquired and analyzed with MetaXpress 5.1.0.41 software. Cell proliferation is measured by the signal intensity of the incorporated nuclear dye. The cell proliferation assay output is referred to as the relative cell count. To determine the cell proliferation end point, the cell proliferation data output is transformed to percentage of control (POC) using the following formula: POC=relative cell count(compound wells)/relative cell count(vehicle wells)×100
# (§3) GI50 is the concentration needed to reduce the observed growth by half. This is the concentration that inhibits the growth to the level midway between growth in untreated cells and the number of cells seeded in the well (Time zero value). The IC50 values are calculated using nonlinear regression to fit data to a sigmoidal 4 point, 4 parameter One-Site dose response model, where: y(fit)=A+[(B−A)/(1+((C/x)^D))].
# as §1, with “In another experiment, cells were grown” for “Cells are grown”, “Cells were” for “Cells are”, “Compounds were” for “Compounds are”, “plate was” for “plate is”, “cells were” for “cells are”, “images were” for “images are”
# as §2, with “images were” for “images are”, “proliferation was” for “proliferation is”, “output was” for “output is”
# as §3, with “GI50 refers to” for “GI50 is”, “This corresponds to” for “This is”, “values were” for “values are”
# [1] = Homo sapiens, SK-N-AS, 72 h, SKNAS, CNS, Neuroblastoma
# [2] = Homo sapiens, SK-N-DZ, 72 h, SKNDZ, CNS, Neuroblastoma
# [3] = Homo sapiens, SK-N-FI, 72 h, SKNFI, CNS, Neuroblastoma
# [4] = Homo sapiens, SK-NEP-1, SKNEP1 (Kidney)
# [5] = Homo sapiens, SK-OV-3, 72 h, SKOV3, Female GU, Ovary, 72 h
# [6] = Homo sapiens, SK-UT-1, 72 h, SKUT1, Soft Tissue, Sarcoma, 72 h
# [7] = Homo sapiens, SNB-19, SNB19 (CNS, Glioma)
# [8] = Homo sapiens, SNU1, 72 h, SNU1, Stomach, 72 h
# [9] = Homo sapiens, SNU-5, 72 h, SNU5, Stomach, 72 h
# [10] = Homo sapiens, SNU-16, 72 h, SNU16, Stomach, 72 h
# [11] = Homo sapiens, SNU-423, SNU423 (Liver)
# [12] = Homo sapiens, SNU-C2B, SNUC2B (Colon)
# [13] = Homo sapiens, ST486, ST486 (Hematopoietic and lymphoid, Lymphoma)
# [14] = Homo sapiens, SU-DHL10, SUDHL10 (Hematopoietic and lymphoid, Lymphoma)
# [15] = Homo sapiens, SU-DHL-4, SUDHL4 (Hematopoietic and lymphoid, Lymphoma)
# [16] = Homo sapiens, SU-DHL-5, SUDHL5 (Hematopoietic and lymphoid, Lymphoma)
# [17] = Homo sapiens, SU-DHL-8, SUDHL8 (Hematopoietic and lymphoid, Lymphoma)
# [18] = Homo sapiens, SU.86.86, 72 h, SU8686, Pancreas, 72 h
# [19] = Homo sapiens, SUP-T1, SUPT1 (Hematopoietic and lymphoid, Lymphoma)
# [20] = Homo sapiens, SW13, SW13 (Endocrine, Adrenal gland)
# [21] = Homo sapiens, SW48, SW48 (Colon)
# [22] = Homo sapiens, SW480, SW480 (Colon)
# [23] = Homo sapiens, SW684, 72 h, SW684, Soft Tissue, Sarcoma, 72 h
# [24] = Homo sapiens, SW837, SW837 (Colon)
# [25] = Homo sapiens, SW872, 72 h, SW872, Soft Tissue, Sarcoma, 72 h
# [26] = Homo sapiens, SW900, 72 h, SW900, Lung, SCLC, 72 h
# [27] = Homo sapiens, SW948, SW948 (Colon)
# [28] = Homo sapiens, SW 954, 72 h, SW954, Female GU, Vulva, 72 h
# [29] = Homo sapiens, SW 962, 72 h, SW962, Female GU, Vulva, 72 h
# [30] = Homo sapiens, SW982, 72 h, SW982, Soft Tissue, Sarcoma, 72 h
# [31] = Homo sapiens, SW1088, SW1088 (CNS, Glioma)
# [32] = Homo sapiens, SW1353, 72 h, SW1353, Soft Tissue, Osteosarcoma, 72 h
# [33] = Homo sapiens, SW1417, SW1417 (Colon)
# [34] = Homo sapiens, SW1463, SW1463 (Colon)
# [35] = Homo sapiens, SW1783, SW1783 (CNS, Glioma)
# [36] = Homo sapiens, SW-403, SW403 (Colon)
# [37] = Homo sapiens, SW-620, SW620 (Colon)
# [38] = Homo sapiens, SiHa, SIHA (Female GU, Cervix)
# [39] = Homo sapiens, T47D, T47D (Breast)
# [40] = Homo sapiens, T98G, T98G (CNS, Glioma)
# [41] = Homo sapiens, TCC-SUP, TCCSUP (Bladder)
# [42] = Homo sapiens, THP-1, THP1 (Hematopoietic and lymphoid, Leukemia)
# [43] = Homo sapiens, U2OS, 72 h, Soft Tissue, Osteosarcoma
# [44] = Homo sapiens, U138-MG, U138MG (CNS, Glioma)
# [45] = Homo sapiens, U-87 MG, U87MG (CNS, Glioma)
# [46] = Homo sapiens, U-118-MG, U118MG (CNS, Glioma)
# [47] = Homo sapiens, UMUC3, UMUC3 (Bladder)
# [48] = Homo sapiens, WM 266-4, 72 h, WM2664, Skin, Melanoma, 72 h
# [49] = Homo sapiens, WiDr, WIDR (Colon)
# [50] = Homo sapiens, YAPC, 72 h, Pancreas
# [51] = Homo sapiens, ZR-75-1, ZR751 (Breast)
# [52] = Hs 445, HS445 (Hematopoietic and lymphoid, Lymphoma)
# [53] = KG1 (Hematopoietic and lymphoid, Leukemia)
# [54] = KHOS-240S, 72 h, KHOS240S, Soft Tissue, Osteosarcoma
# [55] = MS751, 72 h, MS751, Female GU, Ovary, 72 h
# [56] = MX1 (Hematopoietic and lymphoid, Leukemia)
# [57] = NAMALWA (Hematopoietic and lymphoid, Lymphoma)
# [58] = OE21, 72 h, OE21, Head and Neck, Esophageal, 72 h
# [59] = RAMOSRA1 (Hematopoietic and lymphoid, Lymphoma)
# [60] = SKO-007, 72 h, SKO007, Hematopoietic and lymphoid, Myeloma, 72 h
# [61] = SR (Hematopoietic and lymphoid, Lymphoma)
# [62] = SW579, 72 h, SW579, Endocrine, Thyroid, 72 h
# [63] = TE 381.T, 72 h, TE381T, Soft Tissue, Sarcoma
# [64] = TF1 (Hematopoietic and lymphoid, Leukemia)
# [65] = TUR (Hematopoietic and lymphoid, Lymphoma)
smiles,measurement,setting,value
"C[C@]1(C(N)=O)CC[C@@H](n2c(Nc3c(Cl)cc(Cl)cc3Cl)nc3cnc(N[C@@H]4CCOC[C@H]4F)nc32)CC1 [Compound 1, cis-4-[2-{[(3S,4R)-3-fluorooxan-4-yl]amino}-8-(2,4,6-trichloroanilino)-9H-purin-9-yl]-1-methylcyclohexane-1-carboxamide]",GI50,[1],48.9 nM
same,IC50,[1],132 nM
same,GI50,[2],7400 nM
same,IC50,[2],> 10000 nM
same,GI50,[3],15.1 nM
same,IC50,[3],135 nM
same,GI50,[4],> 10000 nM
same,IC50,[4],> 10000 nM
same,GI50,[5],547 nM
same,IC50,[5],> 10000 nM
same,GI50,[6],> 10000 nM
same,IC50,[6],> 10000 nM
same,GI50,[7],163 nM
same,IC50,[7],244 nM
same,GI50,[8],35.5 nM
same,IC50,[8],63.1 nM
same,GI50,[9],36.8 nM
same,IC50,[9],94.3 nM
same,GI50,[10],> 10000 nM
same,IC50,[10],> 10000 nM
same,GI50,[11],192 nM
same,IC50,[11],276 nM
same,GI50,[12],54.4 nM
same,IC50,[12],722 nM
same,GI50,[13],5020 nM
same,IC50,[13],6140 nM
same,GI50,[14],1230 nM
same,IC50,[14],1400 nM
same,GI50,[15],168 nM
same,IC50,[15],332 nM
same,GI50,[16],1.1 nM
same,IC50,[16],1.3 nM
same,GI50,[17],19.3 nM
same,IC50,[17],40.6 nM
same,GI50,[18],63.5 nM
same,IC50,[18],132 nM
same,GI50,[19],19.6 nM
same,IC50,[19],46.6 nM
same,GI50,[20],71.1 nM
same,IC50,[20],135 nM
same,GI50,[21],1.8 nM
same,IC50,[21],3.1 nM
same,GI50,[22],18.4 nM
same,IC50,[22],31.1 nM
same,GI50,[23],86.9 nM
same,IC50,[23],370 nM
same,GI50,[24],172 nM
same,IC50,[24],348 nM
same,GI50,[25],105 nM
same,IC50,[25],136 nM
same,GI50,[26],21.6 nM
same,IC50,[26],39.9 nM
same,GI50,[27],195 nM
same,IC50,[27],327 nM
same,GI50,[28],114 nM
same,IC50,[28],142 nM
same,GI50,[29],82.8 nM
same,IC50,[29],232 nM
same,GI50,[30],15.6 nM
same,IC50,[30],61.4 nM
same,GI50,[31],3350 nM
same,IC50,[31],5980 nM
same,GI50,[32],184 nM
same,IC50,[32],292 nM
same,GI50,[33],8.8 nM
same,IC50,[33],35.1 nM
same,GI50,[34],135 nM
same,IC50,[34],181 nM
same,GI50,[35],5920 nM
same,IC50,[35],9850 nM
same,GI50,[36],47.6 nM
same,IC50,[36],173 nM
same,GI50,[37],49.2 nM
same,IC50,[37],79.8 nM
same,GI50,[38],> 10000 nM
same,IC50,[38],> 10000 nM
same,GI50,[39],> 10000 nM
same,IC50,[39],> 10000 nM
same,GI50,[40],> 10000 nM
same,IC50,[40],> 10000 nM
same,GI50,[41],2210 nM
same,IC50,[41],6590 nM
same,GI50,[42],25.1 nM
same,IC50,[42],49.5 nM
same,GI50,[43],230 nM
same,IC50,[43],373 nM
same,GI50,[44],53 nM
same,IC50,[44],> 10000 nM
same,GI50,[45],69.2 nM
same,IC50,[45],101 nM
same,GI50,[46],175 nM
same,IC50,[46],> 10000 nM
same,GI50,[47],149 nM
same,IC50,[47],201 nM
same,GI50,[48],12 nM
same,IC50,[48],35.4 nM
same,GI50,[49],10.4 nM
same,IC50,[49],13.3 nM
same,GI50,[50],183 nM
same,IC50,[50],670 nM
same,GI50,[51],94.3 nM
same,IC50,[51],7700 nM
same,GI50,[52],14.3 nM
same,IC50,[52],37.7 nM
same,GI50,"Hs766T, 72 h, Pancreas",34.3 nM
same,IC50,"Hs766T, 72 h, Pancreas",79.3 nM
same,GI50,J82 (Bladder),> 10000 nM
same,IC50,J82 (Bladder),> 10000 nM
same,GI50,[53],1.7 nM
same,IC50,[53],32.5 nM
same,GI50,[54],> 10000 nM
same,IC50,[54],> 10000 nM
same,GI50,"KPL-1, KPL1 (Breast)",> 10000 nM
same,IC50,"KPL-1, KPL1 (Breast)",> 10000 nM
same,GI50,[55],6910 nM
same,IC50,[55],9510 nM
same,GI50,MT3 (Breast),674 nM
same,IC50,MT3 (Breast),1080 nM
same,GI50,[56],40.1 nM
same,IC50,[56],61.9 nM
same,GI50,[57],18.1 nM
same,IC50,[57],23.9 nM
same,GI50,"OCUG-1, OCUG1 (Liver)",464 nM
same,IC50,"OCUG-1, OCUG1 (Liver)",1290 nM
same,GI50,[58],93.9 nM
same,IC50,[58],124 nM
same,GI50,[59],3660 nM
same,IC50,[59],3840 nM
same,GI50,RKO (Colon),35.3 nM
same,IC50,RKO (Colon),40.5 nM
same,GI50,"RKOAS451, RKOAS451 (Colon)",40.5 nM
same,IC50,"RKOAS451, RKOAS451 (Colon)",44.9 nM
same,GI50,"SH4 (Skin, Melanoma)",20.8 nM
same,IC50,"SH4 (Skin, Melanoma)",29 nM
same,GI50,[60],27.4 nM
same,IC50,[60],482 nM
same,GI50,[61],1420 nM
same,IC50,[61],1840 nM
same,GI50,[62],47.7 nM
same,IC50,[62],70.8 nM
same,GI50,T24 (Bladder),233 nM
same,IC50,T24 (Bladder),274 nM
same,GI50,[63],7.6 nM
same,IC50,[63],12.8 nM
same,GI50,[64],1.5 nM
same,IC50,[64],9.5 nM
same,GI50,[65],41.5 nM
same,IC50,[65],53.9 nM
same,GI50,"Y79 (Eye-retinoblastoma, Eye)",> 10000 nM
same,IC50,"Y79 (Eye-retinoblastoma, Eye)",> 10000 nM
